Our source for the MIC90, MIC50 and Activity values is ChEMBL document CHEMBL1275460, “Molecular characterization and epidemiology of extended-spectrum-beta-lactamase-producing Escherichia coli and Klebsiella pneumoniae isolates causing health care-associated infection in Thailand, where the CTX-M family is endemic” (2008).

Assay type in all cases: functional
The test system of assay [1] is Klebsiella pneumoniae. The assay can be described thus: Antimicrobial activity against extended-spectrum beta lactamase producing Klebsiella pneumoniae expressing beta-lactamase CTX-M-14 and CTX-M-27 gene by Etest.
Assay [2] relates to Klebsiella pneumoniae. The experiment in a line: Antimicrobial activity against extended-spectrum beta lactamase producing Klebsiella pneumoniae expressing beta-lactamase CTX-M-3, CTX-M-15 and CTX-M-55 and other bla gene by Etest.
Assay [3] relates to Klebsiella pneumoniae. The assay can be described thus: Antimicrobial activity against extended-spectrum beta lactamase producing Klebsiella pneumoniae expressing beta-lactamase CTX-M-3, CTX-M-15 and CTX-M-55 gene by Etest.
Assay [4] relates to Klebsiella pneumoniae. The assay can be described thus: Antimicrobial activity against extended-spectrum beta lactamase producing Klebsiella pneumoniae by Etest.
For assay [5], the system named is Escherichia coli. The experiment in a line: Antimicrobial activity against extended-spectrum beta lactamase producing Escherichia coli expressing beta-lactamase CTX-M-3, CTX-M-15 and CTX-M-55 and other bla gene by Etest.
Assay [6] relates to Escherichia coli. The assay can be described thus: Antimicrobial activity against extended-spectrum beta lactamase producing Escherichia coli expressing beta-lactamase CTX-M-14 and CTX-M-27 gene by Etest.
Assay [7] concerns Escherichia coli. The assay can be described thus: Antimicrobial activity against extended-spectrum beta lactamase producing Escherichia coli expressing beta-lactamase CTX-M-14 and CTX-M-27 and other bla gene by Etest.
The subject of assay [8] is Klebsiella pneumoniae. The experiment in a line: Antimicrobial activity against extended-spectrum beta lactamase producing Klebsiella pneumoniae expressing beta-lactamase CTX-M-14 and CTX-M-27 gene and other bla gene by Etest.
The subject of assay [9] is Escherichia coli. The assay can be described thus: Antimicrobial activity against extended-spectrum beta lactamase producing Escherichia coli expressing beta-lactamase CTX-M-3, CTX-M-15 and CTX-M-55 gene by Etest.
Assay [10] deals with Escherichia coli. The assay can be described thus: Antimicrobial activity against extended-spectrum beta lactamase producing Escherichia coli by Etest.
For assay [11], the system named is Escherichia coli. The assay can be described thus: Antimicrobial activity against extended-spectrum beta lactamase producing Escherichia coli assessed as resistant isolates by Etest.
The subject of assay [12] is Escherichia coli. The experiment in a line: Antimicrobial activity against extended-spectrum beta lactamase producing Escherichia coli expressing beta-lactamase CTX-M-14 and CTX-M-27 gene assessed as susceptible isolates by Etest. Particulars: pooled result: one value given for 2 cell lines, strains, targets or settings.
The test system of assay [13] is Escherichia coli. The assay can be described thus: Antimicrobial activity against extended-spectrum beta lactamase producing Escherichia coli expressing beta-lactamase CTX-M-3, CTX-M-15 and CTX-M-55 and other bla gene assessed as susceptible isolates by Etest.
For assay [14], the system named is Klebsiella pneumoniae. The experiment in a line: Antimicrobial activity against extended-spectrum beta lactamase producing Klebsiella pneumoniae expressing beta-lactamase CTX-M-3, CTX-M-15 and CTX-M-55 and other bla gene assessed as susceptible isolates by Etest.
In assay [15] the test system is Escherichia coli. The experiment in a line: Antimicrobial activity against extended-spectrum beta lactamase producing Escherichia coli expressing beta-lactamase CTX-M-14 and CTX-M-27 gene and other bla gene assessed as susceptible isolates by Etest. Particulars: pooled result: one value given for 2 cell lines, strains, targets or settings.
Assay [16] concerns Escherichia coli. The experiment in a line: Antimicrobial activity against extended-spectrum beta lactamase producing Escherichia coli expressing beta-lactamase CTX-M-3, CTX-M-15 and CTX-M-55 gene assessed as susceptible isolates by Etest.
For assay [17], the system named is Klebsiella pneumoniae. The experiment in a line: Antimicrobial activity against extended-spectrum beta lactamase producing Klebsiella pneumoniae expressing beta-lactamase CTX-M-3, CTX-M-15 and CTX-M-55 gene assessed as susceptible isolates by Etest.
For assay [18], the system named is Klebsiella pneumoniae. The experiment in a line: Antimicrobial activity against extended-spectrum beta lactamase producing Klebsiella pneumoniae assessed as resistant isolates by Etest.

Usually MIC90 stands for an inhibitory concentration at the 90% level, which refers to growth in some studies and to a panel of isolates in others. What is called MIC50 is the lowest concentration that inhibits either 50% of growth or 50% of the strains tested, depending on the study. Low readings indicate greater potency, high ones weaker potency.

In brackets after ≈: the same amount, converted by molar mass.

As for `C[C@@H](O)[C@H]1C(=O)N2C(C(=O)O)=C(SCCNC=N)C[C@H]12` [IMIPENEM ANHYDROUS], the MIC90 was determined as 0.5 µg/mL (≈ 1.67 µM) with Klebsiella pneumoniae [1]; 0.38 µg/mL (≈ 1.27 µM) in the assay with Klebsiella pneumoniae [2]; 0.5 µg/mL (≈ 1.67 µM) in the assay on Klebsiella pneumoniae [3]; 0.38 µg/mL (≈ 1.27 µM) in the assay with Klebsiella pneumoniae [4]; 0.38 µg/mL (≈ 1.27 µM) in the assay with Escherichia coli [5]; 0.5 µg/mL (≈ 1.67 µM) with Escherichia coli [6]. Besides, the MIC90 with Escherichia coli [7] was determined as 0.38 µg/mL (≈ 1.27 µM); against Klebsiella pneumoniae [8] it was 0.38 µg/mL (≈ 1.27 µM); in the assay with Escherichia coli [9] it was 0.5 µg/mL (≈ 1.67 µM). In the assay on Klebsiella pneumoniae [4], this compound registered an MIC50 of 0.25 µg/mL (≈ 0.835 µM).

In the case of `CO/N=C(\C(=O)N[C@@H]1C(=O)N2C(C(=O)O)=C(COC(C)=O)CS[C@H]12)c1csc(N)n1` [CEFOTAXIME], the MIC90 in the assay with Klebsiella pneumoniae [1] is 128 µg/mL (≈ 281 µM); in the assay on Klebsiella pneumoniae [2], over 256 µg/mL; with Klebsiella pneumoniae [3], over 256 µg/mL; in the assay with Klebsiella pneumoniae [4], over 256 µg/mL; against Escherichia coli [10] it was over 256 µg/mL; with Escherichia coli [5] it was over 256 µg/mL. The MIC90 is 128 µg/mL (≈ 281 µM) in the assay on Escherichia coli [6], 256 µg/mL (≈ 562 µM) against Escherichia coli [7], 256 µg/mL (≈ 562 µM) in the assay on Klebsiella pneumoniae [8] and over 256 µg/mL with Escherichia coli [9]. In addition, the MIC50 was determined as 128 µg/mL (≈ 281 µM) against Klebsiella pneumoniae [4] and 256 µg/mL (≈ 562 µM) with Escherichia coli [10].

GENTAMICIN: the Activity with Escherichia coli [11] is 66.3%; in the assay with Escherichia coli [12] it was 33.3%; in the assay with Escherichia coli [13], 19%; in the assay with Klebsiella pneumoniae [14], 19%; in the assay on Escherichia coli [15], 30.3%; in the assay on Escherichia coli [16] it was 24.1%. Also, the Activity was 24.1% in the assay on Klebsiella pneumoniae [17] and 76.4% in the assay with Klebsiella pneumoniae [18].

As to `CC(C)(O/N=C(\C(=O)N[C@@H]1C(=O)N2C(C(=O)[O-])=C(C[n+]3ccccc3)CS[C@H]12)c1csc(N)n1)C(=O)O` [CEFTAZIDIME], the MIC90 against Klebsiella pneumoniae [1] was 16 µg/mL (≈ 29.3 µM); against Klebsiella pneumoniae [2] it was over 256 µg/mL; against Klebsiella pneumoniae [3], 256 µg/mL (≈ 468 µM); against Klebsiella pneumoniae [4], over 256 µg/mL; with Escherichia coli [10], 256 µg/mL (≈ 468 µM); with Escherichia coli [5], over 256 µg/mL. Besides, the MIC90 was 16 µg/mL (≈ 29.3 µM) against Escherichia coli [6], over 256 µg/mL against Escherichia coli [7], over 256 µg/mL with Klebsiella pneumoniae [8] and 256 µg/mL (≈ 468 µM) with Escherichia coli [9]. Besides, the MIC50 with Klebsiella pneumoniae [4] amounted to 128 µg/mL (≈ 234 µM); with Escherichia coli [10] it was 32 µg/mL (≈ 58.5 µM).

For the compound `CN(C)[C@@H]1C(O)=C(C(N)=O)C(=O)[C@@]2(O)C(O)=C3C(=O)c4c(O)cccc4[C@@](C)(O)[C@H]3C[C@@H]12` [TETRACYCLINE], the Activity turned out to be 87.5% in the assay on Escherichia coli [11]; 16.7% in the assay with Escherichia coli [12]; 4.9% in the assay with Escherichia coli [13]; 4.9% in the assay with Klebsiella pneumoniae [14]; 5.9% in the assay on Escherichia coli [15]; 4.8% in the assay with Escherichia coli [16]. For the same compound, the Activity in the assay with Klebsiella pneumoniae [17] is listed as 4.8%; in the assay on Klebsiella pneumoniae [18], 85.7%.

Regarding `C[C@@H](O)[C@H]1C(=O)N2C(C(=O)O)=C(S[C@@H]3CN[C@H](C(=O)Nc4cccc(C(=O)O)c4)C3)[C@H](C)[C@H]12` [ERTAPENEM], the MIC90 in the assay on Klebsiella pneumoniae [1] was 0.19 µg/mL (≈ 0.4 µM); in the assay with Klebsiella pneumoniae [2], 0.5 µg/mL (≈ 1.05 µM); against Klebsiella pneumoniae [3] it was 0.38 µg/mL (≈ 0.799 µM); in the assay on Klebsiella pneumoniae [4], 0.38 µg/mL (≈ 0.799 µM); against Escherichia coli [10], 0.38 µg/mL (≈ 0.799 µM); with Escherichia coli [5] it was 0.5 µg/mL (≈ 1.05 µM). The MIC90 in the assay with Escherichia coli [6] was determined as 0.19 µg/mL (≈ 0.4 µM); in the assay with Escherichia coli [7], 0.25 µg/mL (≈ 0.526 µM); against Klebsiella pneumoniae [8], 0.25 µg/mL (≈ 0.526 µM); in the assay on Escherichia coli [9], 0.38 µg/mL (≈ 0.799 µM). Further, the MIC50 with Klebsiella pneumoniae [4] and in the assay with Escherichia coli [10] was 0.094 µg/mL (≈ 0.198 µM) each time.

As for `CO/N=C(\C(=O)N[C@@H]1C(=O)N2C(C(=O)O)=C(CSc3nc(=O)c(O)nn3C)CS[C@H]12)c1csc(N)n1` [CEFTRIAXONE], the MIC90 in the assay with Klebsiella pneumoniae [1], against Klebsiella pneumoniae [2], with Klebsiella pneumoniae [3], in the assay with Klebsiella pneumoniae [4], against Escherichia coli [10] and in the assay on Escherichia coli [5] was over 256 µg/mL in each case. Besides, the MIC90 with Escherichia coli [6], against Escherichia coli [7], against Klebsiella pneumoniae [8] and against Escherichia coli [9] was over 256 µg/mL in each case. Further, the MIC50 in the assay on Klebsiella pneumoniae [4] and in the assay with Escherichia coli [10] was over 256 µg/mL each time.

On to `O=C(O)c1cn(C2CC2)c2cc(N3CCNCC3)c(F)cc2c1=O` [CIPROFLOXACIN], for which the Activity is 78.1% in the assay on Escherichia coli [11]; 25.7% in the assay with Escherichia coli [12]; 11.1% with Escherichia coli [13]; 11.1% with Klebsiella pneumoniae [14]; 8.3% in the assay with Escherichia coli [15]; 20.4% in the assay on Escherichia coli [16]. For the same compound, the results for the Activity in the assay on Klebsiella pneumoniae [17] and with Klebsiella pneumoniae [18] were 20.4% and 76.6%, respectively.

As to `NCC[C@H](O)C(=O)N[C@@H]1C[C@H](N)[C@@H](O[C@H]2O[C@H](CN)[C@@H](O)[C@H](O)[C@H]2O)[C@H](O)[C@H]1O[C@H]1O[C@H](CO)[C@@H](O)[C@H](N)[C@H]1O` [AMIKACIN], the Activity was 12.5% in the assay on Escherichia coli [11]; 83.3% in the assay on Escherichia coli [12]; 81% in the assay with Escherichia coli [13]; 81% with Klebsiella pneumoniae [14]; 78.9% in the assay with Escherichia coli [15]; 81% in the assay with Escherichia coli [16]. Moreover, the Activity in the assay on Klebsiella pneumoniae [17] is on record as 81%; with Klebsiella pneumoniae [18] it was 28.6%.

For `C[C@@H](O)[C@H]1C(=O)N2C(C(=O)O)=C(S[C@@H]3CN[C@H](C(=O)N(C)C)C3)[C@H](C)[C@H]12` [MEROPENEM], the MIC90 with Klebsiella pneumoniae [1] is 0.094 µg/mL (≈ 0.245 µM); with Klebsiella pneumoniae [2] it was 0.125 µg/mL (≈ 0.326 µM); against Klebsiella pneumoniae [3], 0.19 µg/mL (≈ 0.495 µM); against Klebsiella pneumoniae [4], 0.125 µg/mL (≈ 0.326 µM); with Escherichia coli [10], 0.125 µg/mL (≈ 0.326 µM); in the assay with Escherichia coli [5], 0.125 µg/mL (≈ 0.326 µM). Further, the MIC90 was found to be 0.094 µg/mL (≈ 0.245 µM) with Escherichia coli [6], 0.064 µg/mL (≈ 0.167 µM) against Escherichia coli [7], 0.064 µg/mL (≈ 0.167 µM) with Klebsiella pneumoniae [8] and 0.19 µg/mL (≈ 0.495 µM) with Escherichia coli [9]. Moreover, the MIC50 with Klebsiella pneumoniae [4] and in the assay on Escherichia coli [10] was 0.047 µg/mL (≈ 0.123 µM) each time.
